Experimental data published in PubChem BioAssay (NCI).
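The compound was tested at five concentrations on cells cultured in 96-well plates, with a 48-hour exposure period. GI50 marks 50% less growth. At the TGI there is no net growth.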

What was measured:
Assay in all cases: NCI anticancer screen, dose series, 48 h
NCI-H226 lung = test system: NCI-H226 lung
NCI-H23 lung = test system: NCI-H23 lung
NCI-H460 lung = test system: NCI-H460 lung
NCI-H522 lung = test system: NCI-H522 lung
NCI/ADR-RES ovarian = test system: NCI/ADR-RES ovarian
OVCAR-3 ovarian = test system: OVCAR-3 ovarian
OVCAR-4 ovarian = test system: OVCAR-4 ovarian
OVCAR-5 ovarian = test system: OVCAR-5 ovarian
PC-3 prostate = test system: PC-3 prostate
RPMI-8226 leukemia = test system: RPMI-8226 leukemia
SF-268 CNS = test system: SF-268 CNS
SF-295 CNS = test system: SF-295 CNS
SF-539 CNS = test system: SF-539 CNS
SK-MEL-2 melanoma = test system: SK-MEL-2 melanoma
SK-MEL-28 melanoma = test system: SK-MEL-28 melanoma
SK-MEL-5 melanoma = test system: SK-MEL-5 melanoma
SK-OV-3 ovarian = test system: SK-OV-3 ovarian
SN12C renal = test system: SN12C renal
SNB-19 CNS = test system: SNB-19 CNS
SNB-75 CNS = test system: SNB-75 CNS
SR leukemia = test system: SR leukemia
SW-620 colon = test system: SW-620 colon
T-47D breast = test system: T-47D breast
TK-10 renal = test system: TK-10 renal
U251 CNS = test system: U251 CNS
UACC-62 melanoma = test system: UACC-62 melanoma
UO-31 renal = test system: UO-31 renal

`COc1ccc(-n2cc(-c3cc(OC)c(OC)c(OC)c3)nc2SCc2ccccc2)cc1` was tested, and the GI50 (NCI-H226 lung) was greater than 100 µM, the TGI (NCI-H226 lung) was greater than 100 µM and the GI50 (NCI-H23 lung) was greater than 100 µM. It also gave a TGI (NCI-H23 lung) greater than 100 µM, a GI50 (NCI-H460 lung) of 52.6 µM and a TGI (NCI-H460 lung) greater than 100 µM. For the same compound, the GI50 (NCI-H522 lung) was 31.5 µM, the TGI (NCI-H522 lung) was greater than 100 µM and the GI50 (NCI/ADR-RES ovarian) was 26.8 µM. For the same compound, the TGI (NCI/ADR-RES ovarian) was greater than 100 µM, the GI50 (OVCAR-3 ovarian) was 47.4 µM and the TGI (OVCAR-3 ovarian) was greater than 100 µM. For the same compound, the GI50 (OVCAR-4 ovarian) was 13.3 µM, the TGI (OVCAR-4 ovarian) was greater than 100 µM and the GI50 (OVCAR-5 ovarian) was greater than 100 µM. The TGI (OVCAR-5 ovarian) was greater than 100 µM, the GI50 (PC-3 prostate) was 8.7 µM and the TGI (PC-3 prostate) was greater than 100 µM. For the same compound, the GI50 (RPMI-8226 leukemia) was 5.5 µM, the TGI (RPMI-8226 leukemia) was greater than 100 µM and the GI50 (SF-268 CNS) was greater than 100 µM. It also gave a TGI (SF-268 CNS) greater than 100 µM, a GI50 (SF-295 CNS) greater than 100 µM and a TGI (SF-295 CNS) greater than 100 µM. The GI50 (SF-539 CNS) was greater than 100 µM, the TGI (SF-539 CNS) was greater than 100 µM and the GI50 (SK-MEL-2 melanoma) was greater than 100 µM. For the same compound, the TGI (SK-MEL-2 melanoma) was greater than 100 µM, the GI50 (SK-MEL-28 melanoma) was 76.6 µM and the TGI (SK-MEL-28 melanoma) was greater than 100 µM. The GI50 (SK-MEL-5 melanoma) was 8.54 µM, the TGI (SK-MEL-5 melanoma) was 56.7 µM and the GI50 (SK-OV-3 ovarian) was greater than 100 µM. The TGI (SK-OV-3 ovarian) was greater than 100 µM, the GI50 (SN12C renal) was greater than 100 µM and the TGI (SN12C renal) was greater than 100 µM. It also gave a GI50 (SNB-19 CNS) greater than 100 µM, a TGI (SNB-19 CNS) greater than 100 µM and a GI50 (SNB-75 CNS) of 7.04 µM. For the same compound, the TGI (SNB-75 CNS) was 66.8 µM, the GI50 (SR leukemia) was 54 µM and the TGI (SR leukemia) was greater than 100 µM. The GI50 (SW-620 colon) was greater than 100 µM, the TGI (SW-620 colon) was greater than 100 µM and the GI50 (T-47D breast) was 7.89 µM. The TGI (T-47D breast) was greater than 100 µM, the GI50 (TK-10 renal) was greater than 100 µM and the TGI (TK-10 renal) was greater than 100 µM. For the same compound, the GI50 (U251 CNS) was 43.8 µM, the TGI (U251 CNS) was greater than 100 µM and the GI50 (UACC-62 melanoma) was 42.2 µM. The TGI (UACC-62 melanoma) was greater than 100 µM, the GI50 (UO-31 renal) was 28 µM and the TGI (UO-31 renal) was greater than 100 µM.
